{"source": "patent US6201116A", "about": "“Halide indicators” (The Regents of the University of California, priority 1999, dated 2001)", "key": {"[1]": {"test": "In vitro fluorescence quenching by Cl^- (Stern-Volmer)", "assay_type": "physicochemical", "details": "in water (or saline)", "method": "(§1) Computations. In vitro fluorescence quenching studies were carried out at peak excitation and emission wavelengths. Microliter aliquots of the sodium salt of the quenching anion (1 M) were added to indicator solution in 5 mM sodium phosphate (pH 7.2, unless indicated otherwise). Fluorescence intensities in the absence (Fo) and presence (F) of quencher anion ([Q]) were measured to give the Stem-Volmer constant (Kq) as defined by: Fo /F=1+Kq [Q]."}, "[2]": {"test": "In vitro fluorescence quenching by other ions (Stern-Volmer)", "assay_type": "physicochemical", "method": "as §1"}, "cells [3]": {"system": "cells", "test": "Cell loading and intracellular distribution (fluorescence/confocal microscopy)", "assay_type": "cell-based", "method": "(§2) Fluorescence microscopy. Fluorescence microscopy measurements were performed as described previously (Chao et al., 1989). Briefly, coverglasses were mounted in a 0.5 ml perfusion chamber in which the cell-free glass surface made contact with an oil immersion objective (Nikon ×40 magnification, numerical aperture[NA] 1.3). Cell fluorescence was excited at 365±10 nm (SPQ) or 420 nm±10 nm (LZQ and LMQ). Emitted fluorescence was detected by a photomultiplier in a Nikon inverted epifluorescence microscope using a 410 nm dichroic mirror and 420 nm barrier filter (SPQ) or a 455 nm dichroic mirror and 500 nm barrier filter (LZQ). For cells colabeled with SPQ and LZQ, SPQ fluorescence was excited at 365±10 nm and detected using a 410 nm dichroic mirror and 455±30 nm interference filter. Confocal fluorescence micrographs were obtained using a Nipkow wheel confocal microscope and cooled CCD camera detector using a ×60 oil immersion objective (Nikon, NA 1.4). LZQ-labeled cells were viewed using a fluorescein filter set (excitation 480±15 nm, emission 520±20 nm).\nTransport measurements. Cells were labeled with LZQ or SPQ by hypotonic shock (loading buffer/water 1:1 containing 2 mM LZQ or 7.5 mM SPQ) for 5 min at room temperature or by overnight incubation with indicators in the cell culture medium. Extracellular indicator was removed by washing just prior to measurements. For fluorescence microscopy, glass coverslips were then mounted in a perfusion chamber (flow ~2 ml/min) in which solutions were exchanged using a 4-way valve. For microplate reader measurements, cells in 96-well plates were bathed in […] of the `1st buffer` (see Table 3) and […] of the Cl^- -containing, I^- -free solution was injected into the well to drive Cl^- /I^- exchange (protocol 1). For stimulation of CFTR using protocol 2, […] of a 1:8 mixture of the 1st buffer and the 2nd buffer containing […] forskolin, 2 mM CPT-cAMP and […] IBMX was added.\n(§3) LZQ and LMQ were loaded into cells efficiently by hypotonic shock or passive incubation. […] As was found for SPQ, LZQ and LMQ were non-toxic to cells in assays of cell growth (2 mM in culture medium for 72 h)."}, "cells [4]": {"system": "cells", "test": "Indicator leakage / cytoplasmic retention", "assay_type": "cell-based", "method": "as §2\n(§4) A time course of LZQ fluorescence during perfusion with physiological saline at 23° C. was generated. A small group of 20-30 cells was illuminated continuously and fluorescence was detected by a photomultiplier using an ×40, 1.3 NA objective. Cellular fluorescence decreased slowly at a rate of 2.5% per hour. To determine the relative contributions of indicator leakage vs. photobleaching to the slow decline in fluorescence, the perfused cells were illuminated intermittently. […] Background fluorescence (in non-labeled cells) was generally <5% of the fluorescence of LZQ-labeled cells."}, "cells [5]": {"system": "cells", "test": "Photobleaching in cells", "assay_type": "cell-based", "method": "as §2, §4"}, "cells [6]": {"system": "cells", "test": "Toxicity in assays of cell growth", "assay_type": "cell-based", "details": "2 mM in culture medium for 72 h", "method": "as §3"}, "[7]": {"system": "3T3 fibroblasts expressing CFTR", "test": "Intracellular sensitivity to I^-", "assay_type": "cell-based, mouse", "method": "as §2, with “LZQ-labeled cells were viewed using a fluorescein filter set (excitation 480±15 nm, emission 520±20 nm).” left out\nas §4, with “hour.” for “hour. To determine the relative contributions of indicator leakage vs. photobleaching to the slow decline in fluorescence, the perfused cells were illuminated intermittently.”, “cells. […]” for “cells.”"}, "cells [8]": {"system": "cells", "test": "Response of intracellular fluorescence to osmotically-induced changes in cell volume", "assay_type": "cell-based", "method": "as §2\nThe similar LZQ lifetime in cells and water predicts that LZQ fluorescence should be relatively insensitive to cell volume in the absence of I^-. […] When cells were exposed to hypoosmotic medium (225 mOsm), SPQ fluorescence increased by 15±2%, whereas LZQ fluorescence increased by only 4±1%."}, "[9]": {"test": "Time-resolved anisotropy in water", "assay_type": "physicochemical", "details": "single-component, n=3", "method": "Time resolved fluorescence measurements. Fluorescence lifetime and anisotropy decay measurements were carried out in the frequency domain by cuvette fluorimetry using a Fourier transform fluorimeter (48000 MHF, SLM Instruments, Urbana, Ill.) or by fluorescence microscopy using epifluorescence microscope optics in place of the cuvette compartment (Verkman et al., 1991). For microscopy measurements, impulse-modulated vertically polarized light (442 nm, He--Cd laser 35 mwatts) was reflected onto the sample by a 510 nm dichroic mirror and objective lens; emitted fluorescence was filtered by a 515 nm barrier filter and passed through a rotatable analyzing calcite polarizer. In some experiments, a biconcave lens was introduced just in front of the dichroic mirror to diverge beam diameter in the focal plane to […].\nAnalysis of lifetime and time-resolved anisotropy was performed by a comparative approach. Generally six pairs of measurements (each acquisition 8 s) were obtained, comparing sample and reference (fluorescein in 0.1 N NaOH, lifetime 4.0 ns) for measurement of lifetime, and parallel and perpendicular orientations of the emission polarizer for measurement of anisotropy decay. […] Median phase and modulation values for paired data were analyzed by nonlinear least-squares for determination of lifetimes and rotational correlation times."}}, "data": [{"smiles": "[O-]c1nc2c(N[C@@H]3O[C@H](CO)[C@@H](O)[C@H]3O)ncnc2[n+]2ccccc12", "note": "[I, 4-(β-D-ribofuranosylamino)-pyrido [2,1-h] pteridin-11-ium-5-olate]", "values": [{"measurement": "Stern-Volmer constant, Cl^-", "setting": "[1]", "result": "< 1", "unit": "M⁻¹"}, {"measurement": "Stern-Volmer constant, K^+", "setting": "[2]; K^+", "result": "< 1", "unit": "M⁻¹"}, {"measurement": "Stern-Volmer constant, NO3^-", "setting": "[2]; NO3^-", "result": "< 1", "unit": "M⁻¹"}, {"measurement": "Stern-Volmer constant, Na^+", "setting": "[2]; Na^+", "result": "< 1", "unit": "M⁻¹"}, {"measurement": "Stern-Volmer constant, acetate", "setting": "[2]; acetate", "result": "< 1", "unit": "M⁻¹"}, {"measurement": "Stern-Volmer constant, phosphate", "setting": "[2]; phosphate", "result": "< 1", "unit": "M⁻¹"}, {"measurement": "Cellular properties: staining/distribution", "setting": "cells [3]; Table 4", "result": "staining uniform"}, {"measurement": "labeling of cytoplasm and nucleoplasm", "setting": "cells [3]; all cell types tested: T84, Calu-3, JME, LLC-PK1, MDCK, 3T3 fibroblasts, CHO, HeLa", "result": "uniform labeling of the cytoplasm and nucleoplasm"}, {"measurement": "fluorescence intensity in cells vs. SPQ", "setting": "cells [3]; confocal, substantially higher SPQ concentration used", "result": "remarkably more intense"}, {"measurement": "loading into cells", "setting": "cells [3]; hypotonic shock or passive incubation", "result": "efficiently"}, {"measurement": "cytoplasmic retention vs. LMQ", "setting": "cells [4]", "result": "better cytoplasmic retention properties than LMQ"}, {"measurement": "leakage out of cells", "setting": "cells [4]; microplate section", "result": "low rate"}, {"measurement": "rate of decrease of cellular fluorescence", "setting": "cells [4]; perfusion with physiological saline, 23° C.", "result": 2.5, "unit": "% per hour"}, {"measurement": "Cellular properties: photobleaching", "setting": "cells [5]; Table 4", "result": "slow"}, {"measurement": "photobleaching, intermittent vs. continuous illumination", "setting": "cells [5]; low light level conditions", "result": "absence of photobleaching"}, {"measurement": "toxicity to cells (cell growth)", "setting": "cells [6]", "result": "non-toxic"}, {"measurement": "intracellular Stern-Volmer constant, quenching by I^-", "setting": "[7]; high [K^+] and ionophores", "result": 26, "unit": "M⁻¹"}, {"measurement": "cellular fluorescence response to I^-", "setting": "[7]; repeated addition and removal of 50 mM I^-", "result": "large, reversible changes in fluorescence"}, {"measurement": "fluorescence increase upon exposure to hypoosmotic medium", "setting": "cells [8]; 225 mOsm", "result": "4±1", "unit": "%"}, {"measurement": "fluorescence change upon exposure to hyperosmotic medium", "setting": "cells [8]; 600 mOsm, absence of I^-", "result": "5±1", "unit": "%"}, {"measurement": "rotational correlation time", "setting": "[9]", "result": "121±3", "unit": "ps"}]}]}
